According to patent US4217355A, “Amide therapeutic agents” (Pfizer Inc., priority 1978, dated 1980):

These molecules were tested on carrageenin-induced edema in the hind paw (assay: carrageenin-induced rat food edema test (inhibition of edema formation in the hind paw)). Conditions: rat, oral, 1.0 mg./kg.
Assay type: in vivo, male albino rats
Description: A. Winter et al., Proc. Soc. Exp. Biol. Med., Vol. 111, p.
A. Winter et al., as earlier reported in the Proceedings of the Society of Experimental Biology and Medicine, Vol. 111, p. 544 (1962). In this test, anti-inflammatory activity is determined as the percent inhibition of edema formation in the hind paw of male albino rats (weighing 150-190 g.) in response to a sub-plantar injection of carrageenin. The carrageenin is injected as a 1% aqueous suspension (0.05 ml.) one hour after oral administration of the drug, which is normally given in the form of an aqueous solution. Edema formation is then assessed three hours after the carrageenin injection by measuring the volume of the injected paw initially as well as at the three-hour mark. The increase in volume three hours after carrageenin injection constitutes the individual response.
The following N-(2-thiazolyl)amides were tested for anti-inflammatory activity in rats, using the standard carrageen-ininduced rat food edema test, according to the procedure essentially described by C. A. Winter et al., as first reported in the Proceedings of the Society for Experimental Biology and Medicine, Vol. 111, p. 544 (1962). […]
Cl.O=C(CNCc1ccccc1)Nc1nccs1 [N-(2-thiazolyl)-α-benzylaminoacetamide hydrochloride] was tested, and the “% Inhibition of edema formation (swelling)” value was 35%.

Same assay, conditions: rat, oral, 3.3 mg./kg.
Cl.O=C(CNCc1ccccc1)Nc1nccs1 [N-(2-thiazolyl)-α-benzylaminoacetamide hydrochloride] was tested, and the “% Inhibition of edema formation” value was 47%.

Same assay, conditions: rat, oral, 10 mg./kg.
Cl.O=C(CNCc1ccccc1)Nc1nccs1 [N-(2-thiazolyl)-α-benzylaminoacetamide hydrochloride] was tested, and the “% Inhibition of edema formation” value was 54%.

Same assay, conditions: rat, oral, 33 mg./kg., three hours after carrageenin injection
For O=C(Nc1nccs1)C1CCCCN1 (stereo not drawn) [X=H, R=2-piperidyl, N-(2-thiazolyl)piperidine-2-carboxamide], the “% Inhibition of edema formation” value was 55%. For CNCC(=O)Nc1nccs1 [X=H, R1=H, R2=methyl, N-(2-thiazolyl)-α-methylaminoacetamide], the “% Inhibition of edema formation” value was 54%. In the case of O=C(CNCc1ccc(F)cc1)Nc1nccs1 [X=H, R1=H, R2=p-fluorobenzyl, N-(2-thiazolyl)-α-(p-fluorobenzylamino)acetamide], the “% Inhibition of edema formation” value is reported as 48%. O=C(CNCCc1ccccc1)Nc1nccs1 [X=H, R1=H, R2=β-phenylethyl, N-(2-thiazolyl)-α-(β-phenylethylamino)acetamide] was tested, and the “% Inhibition of edema formation” value was 53%.

What follows are molecules tested on murine thymus cells (assay: lymphocyte stimulation assay (LSA), in vitro lymphocyte proliferation of murine thymus cells cultured in the presence of Concanavalin A). Conditions: in vitro; Con A present; 48 hours at 37° C.; score at drug level with maximum activity.
Assay type: cell-based, male C57B1/6 mice
Source text: On the other hand, the activity of the compounds of the present invention, as immunoregulator agents, is based on a study of their ability to stimulate, in vitro, the lymphocyte proliferation of murine thymus cells cultured in the presence of Concanavalin A (Con A) by employing the general evaluation procedure of V. J. Merluzzi et al., as described in the Journal of Clinical and Experimental Immunology, Vol. 22, p. 486 (1975).
486 (1975). The cells were derived from male C57B1/6 mice of from 6-8 weeks age, purchased from the Jackson Laboratories of Bar Harbor, Maine and the Con A was obtained from Sigma Chemicals of St. Louis, Missouri. Each cell culture (consisting of 0.10 ml. thymus cells stock solution, 0.05 ml. of Con A stock solution and 0.05 ml. of drug solution) was performed in quadruplicate and cellular proliferation was measured, after 48 hours of incubation at 37° C., by pulsing each culture with ^3 H-thymidine (0.01 ml. of specific activity 1.9 C/mM, obtained from Schwarz-Mann, Inc. of Orangeburg, N.Y.) and then determining the incorporation of ^3 H-thymidine into cellular desoxyribonucleic acid (DNA) by an assessment of radioactivity using a liquid scintillation counter.
For Cc1ccc(CNCC(=O)Nc2nccs2)cc1 [X=H, R1=H, R2=p-methylbenzyl, N-(2-thiazolyl)-α-(p-methylbenzylamino)acetamide], the “LSA Activity” value was “+ (those superior to Con A activity but less than levamisole (10,000±700 cpm) were scored as +)”. With O=C(CNCc1cccs1)Nc1nccs1 [X=H, R1=H, R2=2-thenyl, N-(2-thiazolyl)-α-(2-thenylamino)acetamide] the “LSA Activity” value was “+++ (those having an activity greater than levamisole (27,000±1,000 cpm) were scored as +++)”. With O=C(CNCC1CCCCC1)Nc1nccs1 [X=H, R1=H, R2=cyclohexylmethyl, N-(2-thiazolyl)-α-cyclohexylmethylaminoacetamide] the “LSA Activity” value was “++ (those equal to levamisole (22,000±900 cpm) were scored as ++)”. For Cc1csc(NC(=O)C(N)Cc2ccccc2)n1 (stereo not drawn) [X=CH3, R1=C6 H5 CH2, R2=hydrogen, N-(4-methyl-2-thiazolyl)-α-amino-β-phenylpropionamide], the “LSA Activity” value was “+++ (those having an activity greater than levamisole (27,000±1,000 cpm) were scored as +++)”. O=C(Nc1nccs1)C1CCCCN1 (stereo not drawn) [X=H, R=2-piperidyl, N-(2-thiazolyl)piperidine-2-carboxamide] was tested, and the “LSA Activity” value was “+++ (those having an activity greater than levamisole (27,000±1,000 cpm) were scored as +++)”. CNCC(=O)Nc1nccs1 [X=H, R1=H, R2=methyl, N-(2-thiazolyl)-α-methylaminoacetamide] was tested, and the “LSA Activity” value was “+++ (those having an activity greater than levamisole (27,000±1,000 cpm) were scored as +++)”. Cc1csc(NC(=O)CNCc2ccccc2)n1 [X=CH3, R1=H, R2=benzyl, N-(4-methyl-2-thiazolyl)-α-benzylaminoacetamide] was tested, and the “LSA Activity” value was “+++ (those having an activity greater than levamisole (27,000±1,000 cpm) were scored as +++)”. O=C(CNCc1ccco1)Nc1nccs1 [X=H, R1=H, R2=2-furfuryl, N-(2-thiazolyl)-α-(2-furfurylamino)acetamide] was tested, and the “LSA Activity” value was “++ (those equal to levamisole (22,000±900 cpm) were scored as ++)”. For O=C(CNCc1ccc(F)cc1)Nc1nccs1 [X=H, R1=H, R2=p-fluorobenzyl, N-(2-thiazolyl)-α-(p-fluorobenzylamino)acetamide], the “LSA Activity” value was “+++ (those having an activity greater than levamisole (27,000±1,000 cpm) were scored as +++)”. For O=C(CNC1CCCCCCC1)Nc1nccs1 [X=H, R1=H, R2=cyclooctyl, N-(2-thiazolyl)-α-cyclooctylaminoacetamide], the “LSA Activity” value was “++ (those equal to levamisole (22,000±900 cpm) were scored as ++)”. For NCC(=O)Nc1nccs1 [X=H, R1=H, R2=hydrogen, N-(2-thiazolyl)-α-aminoacetamide], the “LSA Activity” value was “++ (those equal to levamisole (22,000±900 cpm) were scored as ++)”. In the case of O=C(CNCc1ccc(Cl)cc1)Nc1nccs1 [X=H, R1=H, R2=p-chlorobenzyl, N-(2-thiazolyl)-α-(p-chlorobenzylamino)acetamide], the “LSA Activity” value is reported as “++ (those equal to levamisole (22,000±900 cpm) were scored as ++)”. Cc1csc(NC(=O)C2CCCCN2)n1 (stereo not drawn) [X=CH3, R=2-piperidyl, N-(4-methyl-2-thiazolyl)piperidine-2-carboxamide] was tested, and the “LSA Activity” value was “+++ (those having an activity greater than levamisole (27,000±1,000 cpm) were scored as +++)”. O=C(CNCCc1ccccc1)Nc1nccs1 [X=H, R1=H, R2=β-phenylethyl, N-(2-thiazolyl)-α-(β-phenylethylamino)acetamide] was tested, and the “LSA Activity” value was “++ (those equal to levamisole (22,000±900 cpm) were scored as ++)”. O=C(CNCC1CCCO1)Nc1nccs1 (stereo not drawn) [X=H, R1=H, R2=2-tetrahydrofurfuryl, N-(2-thiazolyl)-α-(2-tetrahydrofurfurylamino)acetamide] was tested, and the “LSA Activity” value was “++ (those equal to levamisole (22,000±900 cpm) were scored as ++)”. In the case of Cc1csc(NC(=O)C(N)C(C)C)n1 (stereo not drawn) [X=CH3, R1=iso-C3 H7, R2=hydrogen, N-(4-methyl-2-thiazolyl)-α-aminoisovaleramide], the “LSA Activity” value is reported as “+++ (those having an activity greater than levamisole (27,000±1,000 cpm) were scored as +++)”. For O=C(CNCc1ccc2c(c1)OCO2)Nc1nccs1 [X=H, R1=H, R2=3,4-methylenedioxybenzyl, N-(2-thiazolyl)-α-(3,4-methylenedioxybenzylamino)acetamide], the “LSA Activity” value was “++ (those equal to levamisole (22,000±900 cpm) were scored as ++)”. O=C(CNCc1ccc(C(F)(F)F)cc1)Nc1nccs1 [X=H, R1=H, R2=p-trifluoromethylbenzyl] was tested, and the “LSA Activity” value was “++ (those equal to levamisole (22,000±900 cpm) were scored as ++)”. CC(N)C(=O)Nc1nccs1 (stereo not drawn) [X=H, R1=CH3, R2=hydrogen, N-(2-thiazolyl)-α-aminopropionamide] was tested, and the “LSA Activity” value was “+++ (those having an activity greater than levamisole (27,000±1,000 cpm) were scored as +++)”. For COc1ccc(CNCC(=O)Nc2nccs2)cc1 [X=H, R1=H, R2=p-methoxybenzyl, N-(2-thiazolyl)-α-(p-methoxybenzylamino)acetamide], the “LSA Activity” value was “+++ (those having an activity greater than levamisole (27,000±1,000 cpm) were scored as +++)”. With CCNCC(=O)Nc1nccs1 [X=H, R1=H, R2=ethyl, N-(2-thiazolyl)-α-ethylaminoacetamide] the “LSA Activity” value was “+++ (those having an activity greater than levamisole (27,000±1,000 cpm) were scored as +++)”. For CC(C)C(N)C(=O)Nc1nccs1 (stereo not drawn) [X=H, R1=iso-C3 H7, R2=hydrogen, N-(2-thiazolyl)-α-aminoisovaleramide], the “LSA Activity” value was “++ (those equal to levamisole (22,000±900 cpm) were scored as ++)”. With CCCNCC(=O)Nc1nccs1 [X=H, R1=H, R2=n-propyl, N-(2-thiazolyl)-α-(n-propylamino)acetamide] the “LSA Activity” value was “++ (those equal to levamisole (22,000±900 cpm) were scored as ++)”. With Cc1csc(NC(=O)CNCCc2ccccc2)n1 [X=CH3, R1=H, R2=β-phenylethyl, N-(4-methyl-2-thiazolyl)-α-(β-phenylethylamino)acetamide] the “LSA Activity” value was “+++ (those having an activity greater than levamisole (27,000±1,000 cpm) were scored as +++)”. In the case of CNC(C)C(=O)Nc1nccs1 (stereo not drawn) [X=H, R1=CH3, R2=methyl, N-(2-thiazolyl)-α-methylaminopropionamide], the “LSA Activity” value is reported as “+++ (those having an activity greater than levamisole (27,000±1,000 cpm) were scored as +++)”. With CCCCNCC(=O)Nc1nccs1 [X=H, R1=H, R2=n-butyl, N-(2-thiazolyl)-α-(n-butylamino)acetamide] the “LSA Activity” value was “++ (those equal to levamisole (22,000±900 cpm) were scored as ++)”. With Cc1csc(NC(=O)C(C)N)n1 (stereo not drawn) [X=CH3, R1=CH3, R2=hydrogen, N-(4-methyl-2-thiazolyl)-α-aminopropionamide] the “LSA Activity” value was “+++ (those having an activity greater than levamisole (27,000±1,000 cpm) were scored as +++)”. C=CCNCC(=O)Nc1nccs1 [X=H, R1=H, R2=allyl, N-(2-thiazolyl)-α-allylaminoacetamide] was tested, and the “LSA Activity” value was “++ (those equal to levamisole (22,000±900 cpm) were scored as ++)”.

Same assay, conditions: standard compound; Con A present; 48 hours at 37° C.
c1ccc([C@H]2CN3CCSC3=N2)cc1 [levamisole, reference compound] was tested, and the “3H-thymidine incorporated (average counts per minute)” value was 22,000±900 cpm.
